# In patent US12595252B2, “Inhibitors of SARM1” (DISARM THERAPEUTICS, INC., priority 2019, dated 2026):
# Target: T1, SARM1 (Homo sapiens, UniProt Q6SZW1)
# T1 construct: made in house; host or cells: NRK1-HEK293T cells, transiently transfected; clarified lysate used unpurified
# T1 sequence (Q6SZW1 with tags, fused parts or gaps): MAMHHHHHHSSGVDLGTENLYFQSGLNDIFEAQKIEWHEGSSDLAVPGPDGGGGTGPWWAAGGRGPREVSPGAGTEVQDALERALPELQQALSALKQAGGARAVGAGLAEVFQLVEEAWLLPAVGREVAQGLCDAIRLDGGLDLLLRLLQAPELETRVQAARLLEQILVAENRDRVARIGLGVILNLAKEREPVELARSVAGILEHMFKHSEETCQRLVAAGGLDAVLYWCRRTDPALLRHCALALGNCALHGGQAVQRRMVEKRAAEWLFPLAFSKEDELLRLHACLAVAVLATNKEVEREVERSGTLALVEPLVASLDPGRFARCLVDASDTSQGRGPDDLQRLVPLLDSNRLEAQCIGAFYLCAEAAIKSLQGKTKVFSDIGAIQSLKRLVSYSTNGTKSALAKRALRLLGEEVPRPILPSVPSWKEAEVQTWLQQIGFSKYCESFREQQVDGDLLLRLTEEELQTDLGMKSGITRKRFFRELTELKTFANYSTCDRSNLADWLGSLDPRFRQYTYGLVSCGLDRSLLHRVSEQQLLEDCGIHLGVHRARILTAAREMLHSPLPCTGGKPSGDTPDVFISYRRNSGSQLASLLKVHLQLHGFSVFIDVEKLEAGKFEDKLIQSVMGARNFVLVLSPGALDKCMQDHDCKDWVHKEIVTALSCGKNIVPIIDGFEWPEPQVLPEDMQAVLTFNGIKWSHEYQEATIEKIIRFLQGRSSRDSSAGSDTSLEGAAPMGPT
# Test: ARM-SAM-TIR SARM1 IC50 assay (NADase activity, NAD+ cleavage)
# Type: biochemical
# Settings: ARM-SAM-TIR lysate 5 μg/mL from NRK1-HEK293T cells; 2 h pre-incubation; 5 μM NAD+; 2 hr room temperature; NAD+ and ADPR by RapidFire MS; read-out: SARM1 IC50
# Protocol: This Example describes an assay of ARM-SAM-TIR NADase activity and use of this assay to measure the efficacy of compounds of Formula I to block SARM1 mediated NAD+ cleavage. This assay is optimized in such a way as to characterize the efficacy of the compounds in Formula I to inhibit SARM1 activity and to calculate an IC50 value for each compound. This assay makes use of full length SARM1, which encompasses the ARM, SAM and TIR domains.
# NRK1-HEK293T cells were seeded onto 150 cm^2 plates at 20×10^6 cells per plate. The next day, the cells were transfected with 15 μg ARM-SAM-TIR expression plasmid, SEQ ID NO: 1.
# The cultures were supplemented with 1 mM NR at time of transfection to minimize toxicity from ARM-SAM-TIR overexpression. Forty-eight hours after transfection, cells were harvested, pelleted by centrifugation at 1,000 rpm (Sorvall ST 16R centrifuge, Thermo Fisher), and washed once with cold PBS (0.01 M phosphate buffered saline NaCl 0.138 M; KCl 0.0027 M; pH 7.4). The cells were resuspended in PBS with protease inhibitors (cOmplete™ protease inhibitor cocktail, Roche product #11873580001) and cell lysates were prepared by sonication (Branson Sonifer 450, output=3, 20 episodes of stroke). The lysates were centrifuged (12,000×g for 10 min at 4° C.) to remove cell debris and the supernatants (containing ARM-SAM-TIR protein) were stored at −80° C. for later use in the in vitro ARM-SAM-TIR NADase assay (see below). Protein concentration was determined by the Bicinchoninic (BCA) method and used to normalize lysate concentrations.
# The enzymatic assay was performed in a 384-well polypropylene plate in Dulbecco's PBS buffer in a final assay volume of 20 μL. ARM-SAM-TIR lysate with a final concentration of 5 μg/mL was pre-incubated with the respective compound at 1% DMSO final assay concentration over 2 h at room temperature. The reaction was initiated by addition of 5 μM final assay concentration of NAD+ as substrate. After a 2 hr room temperature incubation, the reaction was terminated with 40 μL of stop solution of 7.5% trichloroacetic acid in acetonitrile. The NAD+ and ADPR concentrations were analyzed by a RapidFire High Throughput Mass Spectrometry System (Agilent Technologies, Santa Clara, Calif.) using an API4000 triple quadrupole mass spectrometer (AB Sciex Framingham, Mass.).
row,IC50 [µM],SMILES
1,5 to 15,CCN1CCN(c2ncc(CNc3cncc(OC)n3)cn2)C(C)C1 (stereo not drawn) [Example 122]
2,5 to 15,COc1cncc(NCc2cc[nH]c(=O)c2)n1 [Example 66]
3,> 30,CCN1CCN(c2ccc(CNc3cnccn3)cc2)CC1 [Example 182]
4,5 to 15,COc1cncc(NCc2ccc(N3CCCCC3)nc2)n1 [Example 84]
5,> 30,Cn1cc(CNc2cncc(OCCC3CCCO3)n2)cn1 (stereo not drawn) [Example 177]
6,> 30,COc1cncc(S(=O)(=O)NCc2ccccc2)c1 [Example 207]
7,5 to 15,CNc1cncc(OCc2ccccc2)n1 [Example 163]
8,5 to 15,COc1cncc(NCc2ccc(-c3ccccc3)nc2)n1 [Example 142]
9,5 to 15,COc1cncc(NCc2cccc(C(N)=O)c2)n1 [Example 65]
10,< 5,COc1cncc(NCc2ccc(N)nc2)n1 [Example 118]
11,> 30,CCOc1cncc(NC(C)c2ccccn2)n1 (stereo not drawn) [Example 184]
12,5 to 15,COc1cncc(NCc2ccc(-c3ccncc3)nc2)n1 [Example 141]
